From ChEMBL document CHEMBL2062489, “Design, synthesis and biological evaluation of simplified side chains of the macrolide antibiotic etnangien” (2012)
In brackets after ≈: the same amount, converted by molar mass. Activity calls are given as the source filed them. No cut-off for these calls is given here.

Key:
Mycolicibacterium phlei = assay: Antimicrobial activity against Mycobacterium phlei by serial dilution method; format: functional
[1] = system: Corynebacterium glutamicum; assay: Antimicrobial activity against Corynebacterium glutamicum by serial dilution method; format: functional
Escherichia coli = assay: Antimicrobial activity against Escherichia coli by serial dilution method; format: functional
Micrococcus luteus = assay: Antimicrobial activity against Micrococcus luteus by serial dilution method; format: functional
Agromyces mediolanus = assay: Antimicrobial activity against Corynebacterium mediolanum by serial dilution method; format: functional
Staphylococcus aureus = assay: Antimicrobial activity against Staphylococcus aureus by serial dilution method; format: functional
Saccharomyces cerevisiae = assay: Antimicrobial activity against Saccharomyces cerevisiae by serial dilution method; format: functional
Bacillus subtilis = assay: Antimicrobial activity against Bacillus subtilis by serial dilution method; format: functional
Mycobacterium sp. = assay: Antimicrobial activity against Mycobacterium sp. by serial dilution method; format: functional, organism-based
Gordonia rubripertincta = assay: Antimicrobial activity against Nocardia coralline by serial dilution method; format: functional

| MIC (Mycolicibacterium phlei) | MIC [1] | MIC (Escherichia coli) | MIC (Micrococcus luteus) | MIC (Agromyces mediolanus) | MIC (Staphylococcus aureus) | MIC (Saccharomyces cerevisiae) | MIC (Bacillus subtilis) | Structure (SMILES) | Activity (Mycobacterium sp.) | Activity (Gordonia rubripertincta) |
| --- | --- | --- | --- | --- | --- | --- | --- | --- | --- | --- |
| > 40 µg/mL | > 80 µg/mL | > 80 µg/mL | > 80 µg/mL | > 80 µg/mL | > 80 µg/mL | > 80 µg/mL | > 80 µg/mL | COC(=O)CC/C=C/[C@@H](O)C/C=C/C=C/C=C/C=C/C=C/[C@@H](O)[C@@H](C)CO |  |  |
| > 40 µg/mL | 80 µg/mL (≈ 198 µM) | > 80 µg/mL | > 80 µg/mL | 40 µg/mL (≈ 98.9 µM) | 80 µg/mL (≈ 198 µM) | > 80 µg/mL | 20 µg/mL (≈ 49.4 µM) | COC(=O)CC/C=C/[C@@H](O)C/C=C/C=C/C=C/CC/C=C/C=C/[C@@H](O)[C@@H](C)CO |  |  |
| > 40 µg/mL | > 40 µg/mL | > 40 µg/mL | > 40 µg/mL | > 40 µg/mL | > 40 µg/mL | > 40 µg/mL | > 40 µg/mL | COC(=O)CC/C(C)=C/[C@@H](O)C/C=C/C=C/C=C/C=C/C=C/C(C)=C/[C@@H](O)[C@@H](C)COCc1ccc(OC)cc1 |  |  |

More lines, now with the values behind:

| Structure (SMILES) | MIC (Mycolicibacterium phlei) | MIC [1] | MIC (Escherichia coli) | MIC (Micrococcus luteus) | MIC (Agromyces mediolanus) | MIC (Staphylococcus aureus) | MIC (Saccharomyces cerevisiae) | MIC (Bacillus subtilis) | Activity (Mycobacterium sp.) | Activity (Gordonia rubripertincta) |
| --- | --- | --- | --- | --- | --- | --- | --- | --- | --- | --- |
| COC(=O)CC/C=C/[C@@H](O)C/C=C/C=C/C=C/CC/C=C/C=C/[C@@H](O)[C@@H](C)COCc1ccc(OC)cc1 | > 40 µg/mL | > 80 µg/mL | > 80 µg/mL | > 80 µg/mL | > 80 µg/mL | > 80 µg/mL | > 80 µg/mL | > 80 µg/mL |  |  |
| COC(=O)CC/C=C/[C@@H](O)C/C=C/C=C/C=C/C=C/C=C/[C@@H](O)[C@@H](C)COCc1ccc(OC)cc1 | > 40 µg/mL | 80 µg/mL (≈ 161 µM) | > 80 µg/mL | > 80 µg/mL | > 80 µg/mL | > 80 µg/mL | > 80 µg/mL | > 80 µg/mL |  |  |
| COC(=O)CC/C=C(\C)[C@@H](O)C/C=C/C=C/C=C/C=C/C=C/C(C)=C/[C@@H](O)[C@@H](C)[C@@H]1C[C@H](O)CCC[C@H](OC)C/C=C\C=C\C[C@H](C)[C@@H](O)[C@H](C)[C@@H](O)[C@H](C)[C@H](O)CC(=O)O1 [ETNANGIEN METHYL ESTER] |  | 0.24 µg/mL (≈ 0.281 µM) | > 20 µg/mL | 0.06 µg/mL (≈ 0.0702 µM) |  | 2.5 µg/mL (≈ 2.92 µM) | > 40 µg/mL | 20 µg/mL (≈ 23.4 µM) | Active | Active |
| CO[C@@H]1C/C=C\C=C\C[C@H](C)[C@@H](O)[C@H](C)[C@@H](O)[C@H](C)[C@H](O)CC(=O)O[C@H]([C@H](C)[C@H](O)/C=C(C)/C=C/C=C/C=C/C=C/C=C/C[C@H](O)/C(C)=C/CCC(=O)O)C[C@H](O)CCC1 [ETNANGIEN] | 0.12 µg/mL (≈ 0.143 µM) | 0.03 µg/mL (≈ 0.0357 µM) | > 80 µg/mL | 0.39 µg/mL (≈ 0.464 µM) | 0.06 µg/mL (≈ 0.0713 µM) | 1 µg/mL (≈ 1.19 µM) | > 80 µg/mL | 10 µg/mL (≈ 11.9 µM) | Active | Active |
